According to US12180207B2 (ARRAY BIOPHARMA INC., priority 2018, dated 2024):

Columns and labels:
[1] = molecular target: recombinant human FGFR2 cytoplasmic domain (amino acids 403-822) (Homo sapiens (Human), UniProt P21802); assay: FGFR2 enzyme activity assay (LanthaScreen TR-FRET); format: biochemical; settings: 15 μM ATP, 20 min incubation at 22° C., average of multiple determinations if made, read-out: FGFR2 Enz FRET IC50
Outline: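 Substrate phosphorylation was read by TR-FRET using Eu-PY20 antibody (60 min, 22 °C) after a 20 min, 22 °C reaction. The reaction used 15 μM ATP, 100 nM fluorescent poly-GT peptide and His-tagged FGFR2 403-822 ([…]) at pH 7.5 with 2% DMSO.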

[2] = molecular target: dephosphorylated FGFR1 (SEQ ID NO: 1, amino acids 458 to 765) (Homo sapiens (Human), UniProt P11362); assay: FGFR enzyme binding assay (HTRF tracer displacement), FGFR1; settings: 5 nM dephosphorylated FGFR1, average of multiple determinations if made
Chain of dephosphorylated FGFR1 (SEQ ID NO: 1, amino acids 458 to 765) (P11362 458-765): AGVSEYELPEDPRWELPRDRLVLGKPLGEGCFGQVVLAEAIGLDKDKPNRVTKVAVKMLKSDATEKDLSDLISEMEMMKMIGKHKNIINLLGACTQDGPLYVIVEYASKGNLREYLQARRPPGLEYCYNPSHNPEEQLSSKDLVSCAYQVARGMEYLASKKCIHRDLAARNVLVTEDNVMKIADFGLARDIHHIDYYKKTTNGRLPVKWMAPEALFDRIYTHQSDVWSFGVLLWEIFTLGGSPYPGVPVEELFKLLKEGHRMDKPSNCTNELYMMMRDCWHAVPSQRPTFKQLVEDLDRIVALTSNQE
Outline: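 Kinase and tracer were incubated with compound for 60 minutes at 22° C. Tracer displacement was then measured by HTRF, and results were expressed as POC with 1 μM control inhibitor defining full displacement.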

[3] = molecular target: FGFR1 (SEQ ID NO: 1, amino acids 458-765) (Homo sapiens (Human), UniProt P11362); assay: LC/MS FGFR1 kobs assay (covalent protein modification); format: binding; settings: 500 nM FGFR1, 3 μM compound
Chain of FGFR1 (SEQ ID NO: 1, amino acids 458-765) (P11362 458-765): as above
Outline: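 Covalent labeling of FGFR1 kinase domain (aa 458-765) tracked over time by intact-protein LC/MS after formic acid quench. kobs derived by fitting DMSO-normalized percent unmodified FGFR1 to an exponential decay model.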

[4] = molecular target: recombinant human FGFR3 (amino acids R397-T806) (Homo sapiens (Human), UniProt P22607); assay: FGFR3 enzyme activity assay (LanthaScreen TR-FRET); format: biochemical; settings: 25 μM ATP, 10 min incubation at 22° C., average of multiple determinations if made, read-out: FGFR3 Enz FRET IC50
Chain of recombinant human FGFR3 (amino acids R397-T806) (P22607 397-806): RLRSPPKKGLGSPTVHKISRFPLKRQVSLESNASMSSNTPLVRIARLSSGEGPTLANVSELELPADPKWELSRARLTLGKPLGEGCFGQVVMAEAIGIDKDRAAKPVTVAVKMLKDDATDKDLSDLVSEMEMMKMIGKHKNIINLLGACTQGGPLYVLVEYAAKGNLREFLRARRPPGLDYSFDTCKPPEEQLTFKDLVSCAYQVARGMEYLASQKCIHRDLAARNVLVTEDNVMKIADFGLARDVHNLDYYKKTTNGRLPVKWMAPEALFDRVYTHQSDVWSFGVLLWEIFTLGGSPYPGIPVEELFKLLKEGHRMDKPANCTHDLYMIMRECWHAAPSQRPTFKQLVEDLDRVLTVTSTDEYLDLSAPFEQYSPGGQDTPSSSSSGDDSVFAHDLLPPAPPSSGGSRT
Outline: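 GST-HIS6-tagged human FGFR3 (R397-T806) was reacted with 100 nM Alexa Fluor 647-Poly-GT substrate and 25 μM ATP plus compound in HEPES/MgCl2/Triton buffer, pH 7.5, 2% DMSO, for 10 min at 22 °C.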

[5] = molecular target: recombinant human FGFR1 catalytic domain (amino acids 308-731) (Homo sapiens (Human), UniProt P11362); assay: FGFR1 enzyme activity assay (LanthaScreen TR-FRET); format: biochemical; settings: 20 min incubation at 22° C., average of multiple determinations if made, read-out: FGFR1 Enz FRET IC50
Chain of recombinant human FGFR1 catalytic domain (amino acids 308-731) (P11362 other isoform, or with tags, fused parts or gaps): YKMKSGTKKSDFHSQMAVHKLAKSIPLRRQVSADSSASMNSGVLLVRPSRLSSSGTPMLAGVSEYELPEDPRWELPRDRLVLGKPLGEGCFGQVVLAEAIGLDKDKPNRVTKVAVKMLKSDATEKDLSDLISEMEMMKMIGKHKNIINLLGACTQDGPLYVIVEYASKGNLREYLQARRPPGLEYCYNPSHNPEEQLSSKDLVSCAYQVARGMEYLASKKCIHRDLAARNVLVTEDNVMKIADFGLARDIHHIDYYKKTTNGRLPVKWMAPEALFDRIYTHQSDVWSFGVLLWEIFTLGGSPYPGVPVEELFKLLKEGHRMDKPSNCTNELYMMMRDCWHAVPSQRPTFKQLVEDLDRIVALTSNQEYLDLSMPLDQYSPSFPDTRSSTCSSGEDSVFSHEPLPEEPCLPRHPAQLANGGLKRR
Outline: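 His-tagged FGFR1 kinase domain with 100 nM Alexa Fluor 647-poly-GT peptide and ATP in pH 7.5 HEPES/MgCl2 buffer with 2% DMSO, 20 min at 22 °C. Quenched with EDTA plus 2 nM Eu-PY20 antibody and read after 60 min. IC50 comes from a 4-parameter fit of percent of control.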

Chain of recombinant human FGFR2 cytoplasmic domain (amino acids 403-822) (P21802 402-821): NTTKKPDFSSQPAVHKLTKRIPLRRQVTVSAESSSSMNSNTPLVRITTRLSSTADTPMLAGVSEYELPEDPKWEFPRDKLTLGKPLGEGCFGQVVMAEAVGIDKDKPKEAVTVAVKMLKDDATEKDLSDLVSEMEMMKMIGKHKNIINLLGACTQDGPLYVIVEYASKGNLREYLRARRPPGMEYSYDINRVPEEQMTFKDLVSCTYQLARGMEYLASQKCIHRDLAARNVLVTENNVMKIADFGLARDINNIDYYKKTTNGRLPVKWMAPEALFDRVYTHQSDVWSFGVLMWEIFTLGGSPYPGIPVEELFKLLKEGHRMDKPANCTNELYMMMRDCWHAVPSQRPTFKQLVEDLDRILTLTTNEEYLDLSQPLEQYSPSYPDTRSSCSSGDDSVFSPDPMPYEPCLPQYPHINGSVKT

Row | SMILES | IC50 [1] [nM] | IC50 [2] [nM] | FGFR1 Enz kobs [3] [min⁻¹] | IC50 [4] [nM] | IC50 [5] [nM]
1 | C=CC(=O)N1CC(C(=O)N2CC[C@H](n3cc(-c4cc(OC)c5c(C#N)cnn5c4)cn3)C2)C1 [Example 73, (S)-6-(1-(1-(1-acryloylazetidine-3-carbonyl)pyrrolidin-3-yl)-1H-pyrazol-4-yl)-4-methoxypyrazolo[1,5-a]pyridine-3-carbonitrile] | 4 | 58 | 0.00108 | 4 | 20
2 | C=CC(=O)N1CC[C@H](C(=O)N2CC(n3cc(-c4cc(OC)c5c(C#N)cnn5c4)cn3)C2)C1 [Example 76, (S)-6-(1-(1-(1-acryloylpyrrolidine-3-carbonyl)azetidin-3-yl)-1H-pyrazol-4-yl)-4-methoxypyrazolo[1,5-a]pyridine-3-carbonitrile] | 17 | 409 | 0.0007 | 13 | 52
3 | C=CC(=O)N1CC(C(=O)N2CC(n3cc(-c4cc(OC)c5c(C#N)cnn5c4)cn3)C2)C1 [Example 78, 6-(1-(1-(1-acryloylazetidine-3-carbonyl)azetidin-3-yl)-1H-pyrazol-4-yl)-4-methoxypyrazolo[1,5-a]pyridine-3-carbonitrile] | 23 | 98 | 0.00146 | 12 | 17
4 | C=CC(=O)N1CC(CN2CC(n3cc(-c4cc(OC)c5c(C#N)cnn5c4)cn3)C2)C1 [Example 81, 6-(1-(1-((1-acryloylazetidin-3-yl)methyl)azetidin-3-yl)-1H-pyrazol-4-yl)-4-methoxypyrazolo[1,5-a]pyridine-3-carbonitrile] | 8 | 186 | 0.00086 | 9 | 31
5 | C=CC(=O)N1CCC(C(=O)N2CCC(n3ncc(-c4cc(OC)c5c(C#N)cnn5c4)c3C)CC2)CC1 [Example 82, 6-(1-(1-(1-acryloylpiperidine-4-carbonyl)piperidin-4-yl)-5-methyl-1H-pyrazol-4-yl)-4-methoxypyrazolo[1,5-a]pyridine-3-carbonitrile] | 9 | 374 | 0.00034 | 10 | 73
6 | C=CC(=O)N1CC[C@@H](C(=O)N2CCC(n3ncc(-c4cc(OC)c5c(C#N)cnn5c4)c3C)CC2)C1 [Example 83, (R)-6-(1-(1-(1-acryloylpyrrolidine-3-carbonyl)piperidin-4-yl)-5-methyl-1H-pyrazol-4-yl)-4-methoxypyrazolo[1,5-a]pyridine-3-carbonitrile] | 9 | 420 | 0.00058 | 7 | 77
7 | C=CC(=O)N1CC(C(=O)N2CCC(n3ncc(-c4cc(OC)c5c(C#N)cnn5c4)c3C)CC2)C1 [Example 84, 6-(1-(1-(1-acryloylazetidine-3-carbonyl)piperidin-4-yl)-5-methyl-1H-pyrazol-4-yl)-4-methoxypyrazolo[1,5-a]pyridine-3-carbonitrile] | 15 | 777 | 0.00183 | 6 | 100
8 | C=CC(=O)N1CC(F)(C(=O)N2CCC(n3ncc(-c4cc(OC)c5c(C#N)cnn5c4)c3C)CC2)C1 [Example 85, 6-(1-(1-(1-acryloyl-3-fluoroazetidine-3-carbonyl)piperidin-4-yl)-5-methyl-1H-pyrazol-4-yl)-4-methoxypyrazolo[1,5-a]pyridine-3-carbonitrile] | 13 | 247 | 0.00492 | 7 | 77
9 | C=CC(=O)N1CC(C)(C(=O)N2CCC(n3ncc(-c4cc(OC)c5c(C#N)cnn5c4)c3C)CC2)C1 [Example 86, 6-(1-(1-(1-acryloyl-3-methylazetidine-3-carbonyl)piperidin-4-yl)-5-methyl-1H-pyrazol-4-yl)-4-methoxypyrazolo[1,5-a]pyridine-3-carbonitrile] | 96 | 342 | 0.00258 | 11 | 617

The remaining lines, values ahead:

Row | IC50 [1] [nM] | IC50 [2] [nM] | FGFR1 Enz kobs [3] [min⁻¹] | IC50 [4] [nM] | IC50 [5] [nM] | SMILES
10 | 18 | 322 | 0.00052 | 32 | 240 | C=CC(=O)N1CC(C(=O)N2CCC(n3ncc(-c4cc(OC)c5c(C#N)cnn5c4)c3C)CC2)C1(C)C (stereo not drawn) [Example 87, 6-(1-(1-(1-acryloyl-2,2-dimethylazetidine-3-carbonyl)piperidin-4-yl)-5-methyl-1H-pyrazol-4-yl)-4-methoxypyrazolo[1,5-a]pyridine-3-carbonitrile]
11 | 69 | 202 | 0.00646 | 29 | 152 | C=CC(=O)N1CC(OC)(C(=O)N2CCC(n3ncc(-c4cc(OC)c5c(C#N)cnn5c4)c3C)CC2)C1 [Example 88, 6-(1-(1-(1-acryloyl-3-methoxyazetidine-3-carbonyl)piperidin-4-yl)-5-methyl-1H-pyrazol-4-yl)-4-methoxypyrazolo[1,5-a]pyridine-3-carbonitrile]
12 | 50 | 236 | 0.00364 | 15 | 108 | C=CC(=O)N1CC(CN2CCC(n3ncc(-c4cc(OC)c5c(C#N)cnn5c4)c3C)CC2)C1 [Example 89, 6-(1-(1-((1-acryloylazetidin-3-yl)methyl)piperidin-4-yl)-5-methyl-1H-pyrazol-4-yl)-4-methoxypyrazolo[1,5-a]pyridine-3-carbonitrile]
13 | 56 | 379 | 0.00243 | 21 | 165 | C=CC(=O)N1CC(C)(CN2CCC(n3ncc(-c4cc(OC)c5c(C#N)cnn5c4)c3C)CC2)C1 [Example 90, 6-(1-(1-((1-acryloyl-3-methylazetidin-3-yl)methyl)piperidin-4-yl)-5-methyl-1H-pyrazol-4-yl)-4-methoxypyrazolo[1,5-a]pyridine-3-carbonitrile]
14 | 99 | 284 | 0.00431 | 19 | 197 | C=CC(=O)N1CC(CN2CCC(n3ncc(-c4cc(OC)c5c(C#N)cnn5c4)c3C)CC2)(OC)C1 [Example 91, 6-(1-(1-((1-acryloyl-3-methoxyazetidin-3-yl)methyl)piperidin-4-yl)-5-methyl-1H-pyrazol-4-yl)-4-methoxypyrazolo[1,5-a]pyridine-3-carbonitrile]
15 | 131 | 444 | 0.00191 | 39 | 285 | C=CC(=O)N1CC(CN2CC(n3ncc(-c4cc(OC)c5c(C#N)cnn5c4)c3C)C2)C1 [Example 92]
16 | 127 | 482 | 0.0012 | 41 | 376 | C=CC(=O)N1CC(C)(CN2CC(n3ncc(-c4cc(OC)c5c(C#N)cnn5c4)c3C)C2)C1 [Example 93, 6-(1-(1-((1-acryloyl-3-methylazetidin-3-yl)methyl)azetidin-3-yl)-5-methyl-1H-pyrazol-4-yl)-4-methoxypyrazolo[1,5-a]pyridine-3-carbonitrile]
17 | 22 | 346 | 0.00145 | 8 | 73 | C=CC(=O)N1CC(C(=O)N2CCC(n3cc(-c4cc(OC)c5c(C#N)cnn5c4)c(C)n3)CC2)C1 [Example 94, 6-(1-(1-(1-acryloylazetidine-3-carbonyl)piperidin-4-yl)-3-methyl-1H-pyrazol-4-yl)-4-methoxypyrazolo[1,5-a]pyridine-3-carbonitrile]
18 | 3 | 37 | 0.00423 | 1 | 9 | C=CS(=O)(=O)N[C@H]1CC[C@H](C(=O)N2CCC(n3cc(-c4cc(OC)c5c(C#N)cnn5c4)cn3)CC2)C1 [Example 190, N-((1S,3S)-3-(4-(4-(3-cyano-4-methoxypyrazolo[1,5-a]pyridin-6-yl)-1H-pyrazol-1-yl)piperidine-1-carbonyl)cyclopentyl)-ethenesulfonamide]
